Assay results from patent US20110287442A1, “Tumor Antigen Protein, Gene, or Peptides from Topoisimerase 2 Alpha” (CATHOLIC UNIVERSITY INDUSTRY ACADEMIC COOPERATION FOUNDATION, priority 2010, published 2011).

System: splenocytes from the mice vaccinated with Top2αC RNA/DCs
Assay: IFN-γ ELISA of splenocytes stimulated with Top2αC-derived peptides
Assay type: cell-based, mouse
Conditions: 1 μg/ml peptides, three days, compared to other peptides
Description: The 5 Top2αC-derived peptides binding to MHC class I molecules (H-2 Kb) with a high score were selected by BIMAS and […], and in order to determine T lymphocyte epitopes of Top2αC, splenocytes from the mice vaccinated with Top2αC RNA/DCs were stimulated with Top2αC-derived peptides, and then IFN-γ production was determined by ELISA.
Splenocytes (2×10^5 cells/200 μl) of a mouse vaccinated with Top2αC RNA/DCs were incubated with 1 μg/ml peptides in a round-bottomed 96-well plate. Three days later, the plate was centrifuged and 100 μl of the supernatant was removed from each well. The level of IFN-γ was determined by ELISA (eBioscience, San Diego, USA).

**Q.** For “DSDEDFSGL [p1327, Top2αC-derived peptide, location 1327-1355 as printed]”, which IFN-γ production is on record?
**A.** higher level
